Measured values: the NIST ThermoML archive (doi:10.1021/je8000975)
Numbers after ± are expanded uncertainties.

What was measured:
[1] = xn = mol fraction of the nth substance listed; settings: 101 kPa, Liquid
[2] = Liquid; for speed of sound: Sing-around technique in a fixed-path interferometer

SMILES: COCCOCCO [2-(2-methoxyethoxy)ethanol] + COCCO
- mass density ([1]; 293.15 K, x2 = 0.1005): 1016.02 ± 1 kg/m3
- mass density ([1]; 293.15 K, x2 = 0.1489): 1014.09 ± 0.94 kg/m3
- mass density ([1]; 293.15 K, x2 = 0.1983): 1012.06 ± 0.88 kg/m3
- mass density ([1]; 293.15 K, x2 = 0.2003): 1011.98 ± 0.88 kg/m3
- mass density ([1]; 293.15 K, x2 = 0.2517): 1009.77 ± 0.82 kg/m3
- mass density ([1]; 293.15 K, x2 = 0.2969): 1007.77 ± 0.76 kg/m3
- mass density ([1]; 293.15 K, x2 = 0.2993): 1007.67 ± 0.76 kg/m3
- mass density ([1]; 293.15 K, x2 = 0.3475): 1005.45 ± 0.71 kg/m3
- mass density ([1]; 293.15 K, x2 = 0.3505): 1005.31 ± 0.7 kg/m3
- mass density ([1]; 293.15 K, x2 = 0.3985): 1003.01 ± 0.65 kg/m3
- mass density ([1]; 293.15 K, x2 = 0.45): 1000.45 ± 0.6 kg/m3
- mass density ([1]; 293.15 K, x2 = 0.5003): 997.85 ± 0.56 kg/m3
- mass density ([1]; 293.15 K, x2 = 0.5998): 992.362 ± 0.51 kg/m3
- mass density ([1]; 293.15 K, x2 = 0.6476): 989.566 ± 0.49 kg/m3
- mass density ([1]; 293.15 K, x2 = 0.6993): 986.398 ± 0.47 kg/m3
- mass density ([1]; 293.15 K, x2 = 0.7475): 983.311 ± 0.46 kg/m3
- mass density ([1]; 293.15 K, x2 = 0.7485): 983.242 ± 0.46 kg/m3
- mass density ([1]; 293.15 K, x2 = 0.7971): 979.992 ± 0.44 kg/m3
- mass density ([1]; 293.15 K, x2 = 0.8465): 976.527 ± 0.43 kg/m3
- mass density ([1]; 293.15 K, x2 = 0.8977): 972.767 ± 0.43 kg/m3
- mass density ([1]; 293.15 K, x2 = 0.9483): 968.858 ± 0.42 kg/m3
- mass density ([1]; 298.15 K, x2 = 0.0523): 1013.47 ± 1.1 kg/m3
- mass density ([1]; 298.15 K, x2 = 0.1027): 1011.52 ± 0.98 kg/m3
- mass density ([1]; 298.15 K, x2 = 0.1523): 1009.54 ± 0.92 kg/m3
- mass density ([1]; 298.15 K, x2 = 0.1974): 1007.67 ± 0.86 kg/m3
- mass density ([1]; 298.15 K, x2 = 0.2507): 1005.39 ± 0.8 kg/m3
- mass density ([1]; 298.15 K, x2 = 0.294): 1003.47 ± 0.75 kg/m3
- mass density ([1]; 298.15 K, x2 = 0.3472): 1001.02 ± 0.69 kg/m3
- mass density ([1]; 298.15 K, x2 = 0.3976): 998.612 ± 0.64 kg/m3
- mass density ([1]; 298.15 K, x2 = 0.4502): 995.991 ± 0.61 kg/m3
- mass density ([1]; 298.15 K, x2 = 0.4981): 993.508 ± 0.58 kg/m3
- mass density ([1]; 298.15 K, x2 = 0.5): 993.405 ± 0.57 kg/m3
- mass density ([1]; 298.15 K, x2 = 0.5455): 990.948 ± 0.55 kg/m3
- mass density ([1]; 298.15 K, x2 = 0.5989): 987.943 ± 0.52 kg/m3
- mass density ([1]; 298.15 K, x2 = 0.6471): 985.114 ± 0.5 kg/m3
- mass density ([1]; 298.15 K, x2 = 0.7005): 981.838 ± 0.48 kg/m3
- mass density ([1]; 298.15 K, x2 = 0.749): 978.717 ± 0.47 kg/m3
- mass density ([1]; 298.15 K, x2 = 0.7983): 975.395 ± 0.45 kg/m3
- mass density ([1]; 298.15 K, x2 = 0.846): 972.046 ± 0.45 kg/m3
- mass density ([1]; 298.15 K, x2 = 0.8832): 969.324 ± 0.44 kg/m3
- mass density ([1]; 298.15 K, x2 = 0.8956): 968.391 ± 0.44 kg/m3
- mass density ([1]; 298.15 K, x2 = 0.9483): 964.311 ± 0.43 kg/m3
- mass density ([1]; 303.15 K, x2 = 0.0536): 1008.92 ± 1 kg/m3
- mass density ([1]; 303.15 K, x2 = 0.1018): 1007.06 ± 0.97 kg/m3
- mass density ([1]; 303.15 K, x2 = 0.15): 1005.13 ± 0.9 kg/m3
- mass density ([1]; 303.15 K, x2 = 0.2011): 1003.02 ± 0.84 kg/m3
- mass density ([1]; 303.15 K, x2 = 0.2499): 1000.92 ± 0.78 kg/m3
- mass density ([1]; 303.15 K, x2 = 0.2515): 1000.85 ± 0.78 kg/m3
- mass density ([1]; 303.15 K, x2 = 0.301): 998.636 ± 0.73 kg/m3
- mass density ([1]; 303.15 K, x2 = 0.3527): 996.24 ± 0.69 kg/m3
- mass density ([1]; 303.15 K, x2 = 0.3986): 994.036 ± 0.65 kg/m3
- mass density ([1]; 303.15 K, x2 = 0.4493): 991.5 ± 0.62 kg/m3
- mass density ([1]; 303.15 K, x2 = 0.5028): 988.711 ± 0.58 kg/m3
- mass density ([1]; 303.15 K, x2 = 0.5499): 986.158 ± 0.56 kg/m3
- mass density ([1]; 303.15 K, x2 = 0.6): 983.323 ± 0.53 kg/m3
- mass density ([1]; 303.15 K, x2 = 0.6482): 980.488 ± 0.51 kg/m3
- mass density ([1]; 303.15 K, x2 = 0.6941): 977.672 ± 0.49 kg/m3
- mass density ([1]; 303.15 K, x2 = 0.7485): 974.182 ± 0.48 kg/m3
- mass density ([1]; 303.15 K, x2 = 0.7979): 970.854 ± 0.47 kg/m3
- mass density ([1]; 303.15 K, x2 = 0.8989): 963.546 ± 0.45 kg/m3
- mass density ([1]; 303.15 K, x2 = 0.9476): 959.766 ± 0.45 kg/m3

SMILES: CCCCOCCO [2-butoxyethan-1-ol] + COCCO
- mass density ([1]; 293.15 K, x2 = 0.0524): 902.021 ± 1.2 kg/m3
- mass density ([1]; 293.15 K, x2 = 0.1023): 903.942 ± 1.1 kg/m3
- mass density ([1]; 293.15 K, x2 = 0.1513): 905.929 ± 1.1 kg/m3
- mass density ([1]; 293.15 K, x2 = 0.2009): 908.026 ± 1 kg/m3
- mass density ([1]; 293.15 K, x2 = 0.2491): 910.172 ± 0.97 kg/m3
- mass density ([1]; 293.15 K, x2 = 0.3006): 912.586 ± 0.92 kg/m3
- mass density ([1]; 293.15 K, x2 = 0.3411): 914.561 ± 0.89 kg/m3
- mass density ([1]; 293.15 K, x2 = 0.3986): 917.531 ± 0.84 kg/m3
- mass density ([1]; 293.15 K, x2 = 0.4484): 920.249 ± 0.8 kg/m3
- mass density ([1]; 293.15 K, x2 = 0.4994): 923.189 ± 0.75 kg/m3
- mass density ([1]; 293.15 K, x2 = 0.5492): 926.262 ± 0.71 kg/m3
- mass density ([1]; 293.15 K, x2 = 0.5987): 929.459 ± 0.68 kg/m3
- mass density ([1]; 293.15 K, x2 = 0.6489): 932.911 ± 0.64 kg/m3
- mass density ([1]; 293.15 K, x2 = 0.7291): 938.888 ± 0.58 kg/m3
- mass density ([1]; 293.15 K, x2 = 0.7487): 940.45 ± 0.57 kg/m3
- mass density ([1]; 293.15 K, x2 = 0.7996): 944.683 ± 0.53 kg/m3
- mass density ([1]; 293.15 K, x2 = 0.8491): 949.097 ± 0.5 kg/m3
- mass density ([1]; 293.15 K, x2 = 0.8992): 953.883 ± 0.47 kg/m3
- mass density ([1]; 293.15 K, x2 = 0.9495): 959.058 ± 0.45 kg/m3
- mass density ([1]; 298.15 K, x2 = 0.0522): 897.844 ± 1.2 kg/m3
- mass density ([1]; 298.15 K, x2 = 0.1029): 899.781 ± 1.1 kg/m3
- mass density ([1]; 298.15 K, x2 = 0.15): 901.679 ± 1.1 kg/m3
- mass density ([1]; 298.15 K, x2 = 0.2019): 903.86 ± 1 kg/m3
- mass density ([1]; 298.15 K, x2 = 0.2489): 905.939 ± 0.98 kg/m3
- mass density ([1]; 298.15 K, x2 = 0.2999): 908.306 ± 0.93 kg/m3
- mass density ([1]; 298.15 K, x2 = 0.3514): 910.818 ± 0.89 kg/m3
- mass density ([1]; 298.15 K, x2 = 0.3994): 913.289 ± 0.85 kg/m3
- mass density ([1]; 298.15 K, x2 = 0.449): 915.99 ± 0.81 kg/m3
- mass density ([1]; 298.15 K, x2 = 0.4755): 917.493 ± 0.78 kg/m3
- mass density ([1]; 298.15 K, x2 = 0.4987): 918.836 ± 0.77 kg/m3
- mass density ([1]; 298.15 K, x2 = 0.5985): 925.072 ± 0.69 kg/m3
- mass density ([1]; 298.15 K, x2 = 0.6476): 928.432 ± 0.65 kg/m3
- mass density ([1]; 298.15 K, x2 = 0.6975): 932.045 ± 0.62 kg/m3
- mass density ([1]; 298.15 K, x2 = 0.7481): 935.968 ± 0.58 kg/m3
- mass density ([1]; 298.15 K, x2 = 0.7988): 940.157 ± 0.55 kg/m3
- mass density ([1]; 298.15 K, x2 = 0.8476): 944.484 ± 0.52 kg/m3
- mass density ([1]; 298.15 K, x2 = 0.8993): 949.386 ± 0.48 kg/m3
- mass density ([1]; 298.15 K, x2 = 0.9478): 954.336 ± 0.46 kg/m3
- mass density ([1]; 303.15 K, x2 = 0.0483): 893.466 ± 1.2 kg/m3
- mass density ([1]; 303.15 K, x2 = 0.1002): 895.434 ± 1.1 kg/m3
- mass density ([1]; 303.15 K, x2 = 0.1519): 897.493 ± 1.1 kg/m3
- mass density ([1]; 303.15 K, x2 = 0.1997): 899.493 ± 1 kg/m3
- mass density ([1]; 303.15 K, x2 = 0.2393): 901.221 ± 0.99 kg/m3
- mass density ([1]; 303.15 K, x2 = 0.2476): 901.59 ± 0.99 kg/m3
- mass density ([1]; 303.15 K, x2 = 0.3501): 906.436 ± 0.9 kg/m3
- mass density ([1]; 303.15 K, x2 = 0.3985): 908.906 ± 0.86 kg/m3
- mass density ([1]; 303.15 K, x2 = 0.4499): 911.682 ± 0.81 kg/m3
- mass density ([1]; 303.15 K, x2 = 0.4966): 914.34 ± 0.78 kg/m3
- mass density ([1]; 303.15 K, x2 = 0.5031): 914.737 ± 0.77 kg/m3
- mass density ([1]; 303.15 K, x2 = 0.6119): 921.563 ± 0.69 kg/m3
- mass density ([1]; 303.15 K, x2 = 0.6471): 923.963 ± 0.67 kg/m3
- mass density ([1]; 303.15 K, x2 = 0.7275): 929.874 ± 0.61 kg/m3
- mass density ([1]; 303.15 K, x2 = 0.7491): 931.575 ± 0.59 kg/m3
- mass density ([1]; 303.15 K, x2 = 0.7969): 935.498 ± 0.56 kg/m3
- mass density ([1]; 303.15 K, x2 = 0.8463): 939.82 ± 0.53 kg/m3
- mass density ([1]; 303.15 K, x2 = 0.8986): 944.764 ± 0.5 kg/m3
- mass density ([1]; 303.15 K, x2 = 0.9475): 949.713 ± 0.47 kg/m3

SMILES: COCCO [2-methoxyethan-1-ol]
- mass density ([2]; 293.15 K): 964.656 ± 0.29 kg/m3
- speed of sound ([2]; 293.15 K): 1359.2 ± 0.85 m/s
- mass density ([2]; 298.15 K): 960.088 ± 0.29 kg/m3
- speed of sound ([2]; 298.15 K): 1341.6 ± 0.84 m/s
- mass density ([2]; 303.15 K): 955.471 ± 0.3 kg/m3
- speed of sound ([2]; 303.15 K): 1324.3 ± 0.84 m/s
